Measured values reported in publication PMC3335845, “In-Vivo Biodistribution and Safety of ^99mTc-LLP2A-HYNIC in Canine Non-Hodgkin Lymphoma” (PLoS ONE, 2012).

Experiments:
[1] = Whole body activity by handheld monitor at 1 m from the dog; format: in vivo, dogs
From the text: All dogs were held overnight in a protected area with institutionally approved radiation safety protocols. Dogs were released from the facility after whole body radiation levels were less than 0.5 mR/hr at the skin surface and less than 0.05 mR/hr at 1 m.

[2] = Organ uptake by gamma camera scintigraphy (organ:muscle ratio and percent injected dose); format: in vivo, dogs
Description: All dogs were imaged with a Gamma camera (Technicare Omega 500, Solon, Ohio, or IS2, Ottawa, Ontario). Images were obtained of the whole body in overlapping segments, in right lateral, left lateral, and sternal recumbency. Images were obtained to 200,000 counts, with a 256×256 bit matrix and 16-bit depth. A camera standard of 200 uCi in 10 mL of water was included in each image to ensure stable measurements over the scan period. Camera sensitivity was determined by placing the camera standard 30 cm from the detector and scanning for 1 minute. This calibration factor was used to convert individual organ emission counts to mCi.
Chemotherapy consisted of prednisone, vincristine, cyclophosphamide, and L-asparaginase. Two dogs had whole body computed tomography (CT) performed.
ROIs were drawn on the 2 hour images and duplicated for the opposite lateral projection and subsequent time points, and adjusted for altered patient position. […]
Organs that were clearly delineated on conjugate projections (liver, GI, bone marrow, lung) were measured using the geometric mean method, and smaller or peripherally located organs (kidney, mandibular lymph nodes, salivary gland) were measured using the effective point source method. Depth for depth correction was measured on orthogonal images. Lung activity was measured using an ROI in a posterior region and normalized to the total pixels of the lung. […] […] Camera sensitivity was measured using the camera standard. Percent injected dose and organ:muscle ratio were calculated for each imaging study at each time point. Imaging results are presented in graphical format as percent injected dose for each organ evaluated, as well as organ:muscle ratios.

[3] = Safety monitoring in dogs (vital signs, blood pressure, complete blood counts, serum biochemistry); format: in vivo; conditions: normal dogs and those with NHL
Description: All 3 dogs were mixed breed dogs and after physical examination were clinically normal. […] Images of the whole body in orthogonal planes were acquired at 2 hours, 4 hours, and 6 hours after injection. Complete blood counts and serum biochemistry were performed before and after imaging.

normal lymphocytes = test system: normal lymphocytes; set-up: method as in PMID 16767086, PMID 22177114; conditions: increases with activation; cited from earlier work
[4] = set-up: method as in PMID 16767086; conditions: human plasma; cited from earlier work
canine lymphoma = test system: canine lymphoma; set-up: method as in PMID 16767086, PMID 19289419, PMID 22177114; conditions: in vitro, canine cell lines and tissue samples; less than in human cell lines and xenografts; cited from earlier work
activated α4β1 integrin = test system: activated α4β1 integrin; set-up: method as in PMID 9479864; conditions: cited from earlier work

Compound | mean whole body activity ([1]; 5 minutes post-injection) [mR/h] | whole body activity, range ([1]; 5 minutes post-injection) | mean whole body activity ([1]; 360 min) [mR/h] | whole body activity ([1]; 24 hours) [mR/h] | route of elimination ([2]; dogs) | organ:muscle ratio ([2]; kidney affected with lymphoma (dog L1), highest ratio of tumor tissues) | organ:muscle ratio ([2]; unaffected kidney in the same dog (L1)) | overall safety [3] | affinity to normal lymphocytes (normal lymphocytes) | resistance to proteases [4] | affinity to canine lymphoma (canine lymphoma) | affinity to activated α4β1 on lymphoma cells (activated α4β1 integrin)
Cc1ccccc1NC(=O)Nc1ccc(CC(=O)N[C@@H](CCCCNC(=O)/C=C/c2cccnc2)C(=O)N[C@@H](CCCC(=O)O)C(=O)NC2(C(=O)NCCOCCOCCNC(=O)CCC(=O)NCCOCCOCCNC(=O)CCC(=O)N[C@@H](CCCCNC(=O)c3ccc(NN)nc3)C(N)=O)CCCCC2)cc1 [^99mTc-LLP2A-HYNIC, metal not drawn] | 0.5 | 0.2–0.8 mR/h | 0.13 | 0.04 | mainly eliminated through the kidneys | 7.00 | 5.27 | safe |  |  |  | 
N-[[4-[[[(2-ethylphenyl)amino]carbonyl]amino]phenyl]acetyl]-N ^ε-6-[(2E)-1-oxo-3-(3-pyridinyl-2-propenyl)]-L-lysyl-L-2-aminohexanedioyl-(1-amino-1-cyclohexane)carboxamide [LLP2A] |  |  |  |  |  |  |  |  | mild affinity | resistant to proteases in human plasma | good affinity | high affinity
